Source: patent publication US8846719B2, “Isoxazolo-pyridine derivatives” (Roche Palo Alto LLC, priority 2007, dated 2014)

Biological target: human GABA A receptor α5β3γ2 (Homo sapiens (Human), UniProt P18507+P31644)
Assay: [3H]flumazenil competition binding assay, human GABA A α5β3γ2 receptors expressed in HEK293 cells
Conditions: human receptor; displacement of [3H]flumazenil (0.5 nM); means of two determinations; read-out: hKi GABAAa5
Summary of the method: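 Competition for [3H]flumazenil binding on membranes of HEK293 cells transiently transfected with human α5β3γ2 receptors, in Krebs-tris buffer pH 7.5.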

| Ki [nM] | SMILES |
| --- | --- |
| 40.7 | Cc1onc(-c2ccccc2)c1COc1ccc(C(=O)N2CCCn3nccc32)cn1 [Example 78, (6,7-Dihydro-5H-pyrazolo[1,5-a]pyrimidin-4-yl)-[6-(5-methyl-3-phenyl-isoxazol-4-ylmethoxy)-pyridin-3-yl]-methanone] |
| 0.4 | Cc1onc(-c2ccc(Cl)cc2F)c1COc1ccc(C(=O)NC(C)C)cn1 [Example 270, 6-[3-(4-Chloro-2-fluoro-phenyl)-5-methyl-isoxazol-4-ylmethoxy]-N-isopropyl-nicotinamide] |
| 24 | Cc1onc(-c2cccnc2)c1COc1ccc(C(=O)NCC(F)(F)F)cn1 [Example 155, 6-(5-Methyl-3-pyridin-3-yl-isoxazol-4-ylmethoxy)-N-(2,2,2-trifluoro-ethyl)-nicotinamide] |
| 26.3 | Cc1onc(-c2cccnc2)c1COc1ccc(C(=O)NC2CC2)cn1 [Example 157, N-Cyclopropyl-6-(5-methyl-3-pyridin-3-yl-isoxazol-4-ylmethoxy)-nicotinamide] |
| 1.1 | Cc1onc(-c2ccc(Cl)cc2)c1COc1ccc(C(=O)NC2CC2)cn1 [Example 120, 6-[3-(4-Chloro-phenyl)-5-methyl-isoxazol-4-ylmethoxy]-N-cyclopropyl-nicotinamide] |
| 6.5 | Cc1onc(-c2ccc(F)cc2)c1CNc1ccc(C(=O)NC2CCOCC2)cn1 [Example 177, 6-{[3-(4-Fluoro-phenyl)-5-methyl-isoxazol-4-ylmethyl]-amino}-N-(tetrahydro-pyran-4-yl)-nicotinamide] |
| 2.9 | Cc1onc(-c2ccc(Cl)cc2)c1COc1ccc(C(=O)N2CCS(=O)(=O)CC2)cn1 [Example 122, {6-[3-(4-Chloro-phenyl)-5-methyl-isoxazol-4-ylmethoxy]-pyridin-3-yl}-(1,1-dioxo-1,6-thiomorpholin-4-yl)-methanone] |
| 12.3 | Cc1onc(-c2ccccc2)c1COc1ccc(C(=O)NC2CCCN(CC(=O)NC3CC3)C2)cn1 (stereo not shown) [Example 43, N-(1-Cyclopropylcarbamoylmethyl-piperidin-3-yl)-6-(5-methyl-3-phenyl-isoxazol-4-ylmethoxy)-nicotinamide] |
| 7.8 | Cc1onc(-c2cccc(Cl)c2)c1COc1ccc(C(=O)NCC(F)(F)F)cn1 [Example 98, 6-[3-(3-Chloro-phenyl)-5-methyl-isoxazol-4-ylmethoxy]-N-(2,2,2-trifluoro-ethyl)-nicotinamide] |
| 6.5 | Cc1cc(CNC(=O)c2ccc(OCc3c(-c4ccccc4)noc3C)nc2)c(=O)[nH]n1 [Example 23, N-(6-Methyl-3-oxo-2,3-dihydro-pyridazin-4-ylmethyl)-6-(5-methyl-3-phenyl-isoxazol-4-ylmethoxy)-nicotinamide] |
| 21.2 | O=C(NC(CO)CO)c1ccc(OCc2conc2-c2ccc(F)cc2)nc1 [Example 334, 6-[3-(4-Fluoro-phenyl)-isoxazol-4-ylmethoxy]-N-(2-hydroxy-1-hydroxymethyl-ethyl)-nicotinamide] |
| 27.4 | COC(=O)c1ccc(OCc2c(-c3cccc(Cl)c3)noc2C)nc1 [Example 97, 6-[3-(3-Chloro-phenyl)-5-methyl-isoxazol-4-ylmethoxy]-nicotinic acid methyl ester] |

| SMILES | Ki [nM] |
| --- | --- |
| Cc1onc(-c2ccc(Cl)cc2)c1COc1ccc(C(=O)O)cn1 [Example 116, 6-[3-(4-Chloro-phenyl)-5-methyl-isoxazol-4-ylmethoxy]-nicotinic acid] | 22.3 |
| CC(C)(CO)NC(=O)c1ccc(OCc2conc2-c2ccc(Cl)cc2)nc1 [Example 349, 6-[3-(4-Chloro-phenyl)-isoxazol-4-ylmethoxy]-N-(2-hydroxy-1,1-dimethyl-ethyl)-nicotinamide] | 39.9 |
| O=C(NCCO)c1ccc(OCc2conc2-c2ccc(Cl)cc2)nc1 [Example 346, 6-[3-(4-Chloro-phenyl)-isoxazol-4-ylmethoxy]-N-(2-hydroxy-ethyl)-nicotinamide] | 10.9 |
| Cc1onc(-c2ccccc2)c1COc1ccc(C(=O)N[C@@H](Cc2ccccc2)C(=O)O)cn1 [Example 231, (S)-2-{[6-(5-Methyl-3-phenyl-isoxazol-4-ylmethoxy)-pyridine-3-carbonyl]-amino}-3-phenyl-propionic acid] | 28 |
